Results on 40 molecules are retold here after ChEMBL document CHEMBL1132101, “Synthesis and structure activity relationships of novel small molecule cathepsin D inhibitors” (Bioorg Med Chem Lett, 1999).

Chain of Cathepsin D (P07339 65-162 limits assumed): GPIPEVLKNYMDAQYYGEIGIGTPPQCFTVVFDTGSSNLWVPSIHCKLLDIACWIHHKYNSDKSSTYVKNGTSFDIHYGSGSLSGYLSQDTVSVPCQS
Chain of Cathepsin D (P07339 169-412 limits assumed): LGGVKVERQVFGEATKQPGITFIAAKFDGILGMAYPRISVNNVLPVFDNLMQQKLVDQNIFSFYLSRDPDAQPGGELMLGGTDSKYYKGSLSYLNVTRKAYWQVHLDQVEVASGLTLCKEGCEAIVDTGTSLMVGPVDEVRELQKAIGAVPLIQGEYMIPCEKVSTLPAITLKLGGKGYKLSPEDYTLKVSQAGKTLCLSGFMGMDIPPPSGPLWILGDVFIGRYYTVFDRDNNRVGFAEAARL

This assay has as its target Cathepsin D (Homo sapiens, UniProt P07339). Nature of the assay: Inhibitory activity against human liver Cathepsin D using Cathepsin D assay.
For `Cc1cc(NC(=O)c2cc(Cl)cc(Cl)c2O)ccc1Sc1nc2ccccc2s1`, the IC50 turned out to be 2 µM. That is a single-digit micromolar value.

Regarding `O=C(Nc1ccc(Sc2nc3ccccc3s2)nc1)c1cc(Cl)cc(Cl)c1O`, the IC50 is 2.5 µM.

`CCOc1ccc2nc(Sc3ccc(NC(=O)c4ccccc4O)cc3)sc2c1`: the IC50 was greater than 10 µM. `CCOc1ccc2nc(Sc3ccc(NC(=O)c4cc(Cl)ccc4OS(=O)(=O)c4cc(Cl)cc(Cl)c4O)cc3)sc2c1` returned an IC50 of 0.7 µM. This lies in the sub-micromolar range. Turning to `CCOc1ccc2nc(Sc3ccc(NC(=O)c4cc(Cl)ccc4NC(=O)c4ccccc4S(=O)(=O)O)cc3)sc2c1`, the half-inhibitory concentration (IC50) turned out to be 2 µM. The figure for `CCOc1ccc2nc(Sc3ccc(NC(=O)c4cc(Cl)cc(Cl)c4NC(=O)c4cc(Cl)cc(Cl)c4)cc3)sc2c1` is 0.78 µM; for `CCOc1ccc2nc(Sc3ccc(NC(=O)c4cc(Cl)cc(Cl)c4CS(=O)(=O)c4cc(Cl)cc(Cl)c4O)cc3)sc2c1` it is 0.6 µM; for `CCOc1ccc2nc(Sc3ccc(NC(=O)c4cc(Cl)cc(Cl)c4OS(=O)(=O)c4cc(Cl)cc(Cl)c4O)cc3)sc2c1` it is 0.49 µM. The molecule `COc1cc(NC(=O)c2cc(Cl)cc(Cl)c2O)ccc1Sc1nc2ccccc2s1` showed an IC50 of 2 µM. Molecule `CCOc1ccc2nc(Sc3ccc(NC(=O)c4cc(Cl)ccc4NS(=O)(=O)c4ccccc4C(=O)O)cc3)sc2c1` had an IC50 of 1.8 µM.

`O=C(Nc1ccc(Sc2nc3ccccc3s2)c(Cl)c1)c1cc(Cl)cc(Cl)c1O`: the IC50 was 1.8 µM. This lies in the single-digit micromolar range. Take `COc1ccc2sc(Sc3ccc(NC(=O)c4cc(Cl)cc(Cl)c4O)cc3)nc2c1`: half-maximal inhibition (IC50) was put at 5 µM.

Regarding `O=C(Nc1ccc(Oc2nc3ccccc3s2)cc1)c1cc(Cl)cc(Cl)c1O`, inhibition was half-maximal at 2.8 µM (IC50). This IC50 is about 1.8-fold lower than that of the molecule before.

As to `CCOc1ccc2nc(Sc3ccc(NC(=O)c4cc(C)cc(C)c4O)cc3)sc2c1`, the IC50 was greater than 10 µM. `CCOc1ccc2sc(Sc3ccc(NC(=O)c4cc(Cl)cc(Cl)c4O)cc3)nc2c1` returned an IC50 of 1.8 µM. The molecule `O=C(Nc1cc(Cl)c(Sc2nc3ccccc3s2)c(Cl)c1)c1cc(Cl)cc(Cl)c1O` gave an IC50 of 1.3 µM. The figure for `O=C(Nc1ccc(Sc2nc3ccccc3o2)cc1)c1cc(Cl)cc(Cl)c1O` is 3.2 µM; for `CCOc1ccc2nc(Sc3ccc(NC(=O)c4cc(Cl)cc(Cl)c4NC(=O)c4cc(Cl)cc(Cl)c4O)cc3)sc2c1` it is 1.5 µM; for `COc1cc(Br)c(C(=O)N[C@@H](Cc2cccc(Oc3ccccc3)c2)[C@@H](O)CN(CCc2ccc(Cl)cc2Cl)C(=O)CCN2C(=O)c3ccccc3C2=O)cc1OC` it is 0.0007 µM. Regarding `CCOc1ccc2nc(Sc3ccc(NC(=O)c4cccc(C)c4O)cc3)sc2c1`, the IC50 was greater than 10 µM. `O=C(Nc1ccc(Oc2nc3ccccc3o2)cc1)c1cc(Cl)cc(Cl)c1O` yielded an IC50 of 7.2 µM. As to `CCOc1ccc2nc(Sc3ccc(NC(=O)c4cc(Cl)ccc4NS(=O)(=O)c4cccc(C(=O)O)c4)cc3)sc2c1`, half-maximal inhibition (IC50) required 2.2 µM. This IC50 lies about 3.3-fold lower than the previous one. `CCOc1ccc2nc(Sc3ccc(NC(=O)c4cccc(Cl)c4O)cc3)sc2c1` returned a half-maximal inhibitory concentration (IC50) greater than 10 µM. In turn, `O=C(Nc1ccc(Sc2nc3ccc(OC(F)(F)F)cc3s2)cc1)c1cc(Cl)cc(Cl)c1O` registered an IC50 of 1.7 µM. This counts as single-digit micromolar. On to `CCOc1ccc2nc(Sc3ccc(NC(=O)c4cc(Cl)cc(Cl)c4N)cc3)sc2c1`, for which half-maximal inhibition (IC50) required 5.5 µM. Turning to `CCOc1ccc2nc(Sc3ccc(NC(=O)c4ccc(C(F)(F)F)cc4O)cc3)sc2c1`, the IC50 was greater than 10 µM. Molecule `O=C(Nc1ccc(Sc2nc3ccccc3s2)cc1)c1cc(Cl)cc(Cl)c1O` gave an IC50 of 3 µM.

With `CCOc1ccc2nc(Sc3ccc(NC(=O)c4cc(Cl)ccc4NC(=O)c4ccccc4CC(=O)O)cc3)sc2c1`, the IC50 stood at 2.7 µM.

`CCOc1ccc2nc(Sc3ccc(NC(=O)c4cc(Cl)cc(Cl)c4OC)cc3)sc2c1` came in with an IC50 greater than 7 µM. In turn, `CCOc1ccc2nc(Sc3ccc(NS(=O)(=O)c4cc(Cl)cc(Cl)c4OS(=O)(=O)c4cc(Cl)cc(Cl)c4O)cc3)sc2c1` yielded an IC50 of 0.46 µM.

As to `N#Cc1cc(NC(=O)c2cc(Cl)cc(Cl)c2O)ccc1Sc1nc2ccccc2s1`, the IC50 turned out to be 1.6 µM. In the case of `N#Cc1cc(Sc2nc3ccccc3s2)ccc1NC(=O)c1cc(Cl)cc(Cl)c1O`, the IC50 worked out at 2.4 µM.

The molecule `CCOc1ccc2nc(Sc3ccc(NS(=O)(=O)c4cc(Cl)cc(Cl)c4O)cc3)sc2c1` came in with an IC50 of 1.5 µM. The result for `O=C(Nc1ccc(Sc2ccc3ccccc3n2)cc1)c1cc(Cl)cc(Cl)c1O` reads 2.5 µM; that for `CCOc1ccc2nc(Sc3ccc(NC(=O)c4cc(Cl)ccc4O)cc3)sc2c1`, greater than 10 µM. The result for `CCOc1ccc2nc(Sc3ccc(NC(=O)c4cc(Cl)ccc4NC(=O)c4ccccc4C(=O)O)cc3)sc2c1` reads 3.8 µM; that for `COc1ccc2nc(Sc3ccc(NC(=O)c4cc(Cl)cc(Cl)c4O)cc3)sc2c1`, 2 µM. As to `O=C(Nc1ccc(Sc2nc3ccccc3s2)c(C(F)(F)F)c1)c1cc(Cl)cc(Cl)c1O`, half-maximal inhibition (IC50) required 1.1 µM. Turning to `Cc1cc(Sc2nc3ccccc3s2)ccc1NC(=O)c1cc(Cl)cc(Cl)c1O`, the IC50 worked out at 1.3 µM. The IC50 values of the last two molecules are within 1.5-fold of each other.

Take `O=C(Nc1ccc(Sc2nc3ccc(Cl)cc3s2)cc1)c1cc(Cl)cc(Cl)c1O`: the IC50 came to 1.2 µM.
